Test results published in article PMC10470313, “Developing a peptide to disrupt cohesin head domain interactions” (iScience, 2023).
Values joined by “and” are separate entries in the source; they are usually repeats but may differ in a detail not shown here. Identical values can stand only once. “Also recorded” adds a separate entry of the source.

T1: CIP3-TAT (S. cerevisiae | HIV)
T1 construct: Smc1, S. cerevisiae, residues 1121-1135 (conserved region of the head domain); linker between the Smc1 stretch and the TAT stretch; 11-amino acid peptide from the HIV TAT protein, added for delivery into cells; The methods of the biosensing experiment call the immobilised peptide CIP3; also called TAT-CIP3; source: synthetic peptide (Fmoc solid-phase synthesis, purified by preparative RP-HPLC)
T1 peptide: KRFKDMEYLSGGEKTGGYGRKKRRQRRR

B1: Smc3 head domain (domain or fragment, S. cerevisiae)
chain: YIKRVIIKGFKTYRNETIIDNFSPHQNVIIGSNGSGKSNFFAAIRFVLSDDYSNLKREERQGLIHQGSGGSVMSASVEIVFHDPDHSMILPSGVLSRGDDEVTIRRTVGLKKDDYQLNDRNVTKGDIVRMLETAGFSMNNPYNIVPQGKIVALTNAKDKERLQLLEDVVGAKSFEVKLKASLKKMEETEQKKIQINKEMGELNESSKHPTSLVPRGNFKKFNERRKDLAERASELDESKDSIQDLIVKLKQQKVNAVDSTFQKVSENFEAVFERLVPRGTAKLIIHRKNDNANDHDESIDVDMDAESNESQNGKDSEIMYTGVSISVSFNSKQNEQLHVEQLSGGQKTVCAIALILAIQMVDPASFYLFDEIDAALDKQYRTAVATLLKELSKNAQFICTTFRTDMLQVADKFFRVKYENKISTVIEVNREEAIGFIRGSNKFAEV
notes: Smc3, S. cerevisiae, N-terminal part of the head domain, amino acids 2-204; 13 amino acids linker in place of the coiled coil and hinge; Smc3, S. cerevisiae, C-terminal part of the head domain, amino acids 1001-1230; also called Smc3hd; source: E. coli BL21, purified (Ni-NTA, twice)

Columns and labels:
cohesin in yeast cells = assay: Preliminary analysis of biological effect; assay type: cell-based
Experimental: (§1) Strains yIO1000 (control) and yME-031 (pGAL-CIP1), yME-016 (pGAL-CIP2), and yME-019 (pGAL-CIP3) cells were diluted in SC-URA galactose medium, and their growth rate was measured by optical density at 600 nm every 120 min. Cohesin is essential for cell division, so we expected that inhibition of cohesin activity by expressing a CIP would affect the cell growth rate.
The CIP3 sequence is derived from the C-terminal region of Smc1. The 15 amino acid sequence is conserved, encoding part of a short loop and the beginning of an alpha helix located at the bottom of the head domain (Figures 1A–1C). […] We used the HPepDock 2.0 server[32]^,[33]^,[34]^,[35] to predict the docking site of CIP3 on Smc3. The coordinates of the Smc3 structure (PDB: 4ux3)[36] were entered as the receptor input and CIP3 as the sequence as the peptide input and the analysis was done using the default parameter. […] CIP3 may interfere with ATP binding to the Walker A site in Smc3. Alternatively, it may misplace the hydrolysis motif in Smc1 and inhibit that ATPase activity. It is important to note that dynamics models are required to understand the structural basis of the Smc3-CIP3 complex fully, as well as experimental validation of the model.

[1] = tested on: yeast cells (pGAL-CIP strains); assay: Yeast growth rate with galactose-induced peptide expression (OD600); assay type: cell-based, Saccharomyces cerevisiae; settings: OD 600 nm every 120 min; for growth of cells overexpressing the peptide: SC-URA galactose medium, compared with control plasmid; for growth rate vs control, multiple linear regression coefficient B: logarithmic phase, galactose medium, representative experiment, vs control strain yIO1000
From the text: We designed three cohesin-inhibiting peptides (CIPs, Table 1) to inhibit Smc1/Smc3 protein-protein interaction. CIP1 and CIP2 were derived from conserved regions in Smc3, while CIP3 was derived from a conserved region in Smc1 (Figure 1E). To explore the biological effect of the peptides on cohesin, we sought to overexpress them in cells. For that purpose, we constructed a centromeric plasmid—pME4 (CIP1), pME2 (CIP2), and pME3 (CIP3), in which the peptide coding sequence was inserted after an ATG codon and under the control of a GAL promoter. Cells were transformed with the plasmids and grown in an SC-URA medium. In addition, we transformed cells with a control plasmid (pIO014).
as §1
Figure 2 CIP3 causes cell growth delay Strains yIO1000 (control) and yME-031 (pGAL-CIP1), yME-016 (pGAL-CIP2), and yME-019 (pGAL-CIP3) cells were grown in a galactose-containing medium to induce peptide expression. Cell growth was monitored every 120 min to measure the optical density of the culture at 600 nm. The growth rate in the logarithmic growth phase was calculated. The results of a representative experiment are shown.

[2] = tested on: yIO-001 strain yeast cells; assay: Peptide entry into yeast cells (epifluorescence microscopy); assay type: cell-based; settings: 10 mM peptide, 1 h, 30°C, mid-log phase, FITC epifluorescence
Experimental: The formation of Smc3/CIP3 complexes supports our preliminary conclusion that CIP3 inhibits cohesin activity in cells. Aiming to improve the stability of the peptide in cells, we switched to using an in vitro synthesized peptide. This approach has been successfully used to inhibit protein-protein interactions in both yeast and mammalian cells.[26]^,[38]^,[39]^,[40]^,[41] […] We validated peptide entry into yeast by incubating a 26-amino acid control peptide (ContP), which was fused to the TAT, and a fluorescein isothiocyanate (FITC) fluorophore. Thereafter, 10 mM of the ContP was added to yIO-001 strain cells grown to mid-log phase at 30°C. The cells were incubated with the peptide for 1 h and analyzed by epifluorescence microscopy.
Supplementary Figure S3. Binding of CIP3-TAT to cohesin by microscale thermophoresis, Related to Figure 3. 10 µM CIP3-TAT was added to protein extracts from strain yAM-945 (Smc3-GFP). The formation of the CIP3-TAT and cohesin complex was analyzed by MST in binding mode. A. MST trace. B. Binding analysis.
Supplementary Figure S4. […]
3. […] The purified proteins were analyzed on gel, followed by coomassie staining. […]
Supplementary Figure S5. […] The entry of the peptide into the cells was analyzed by epifluorescence microscopy.
Supplementary Figure S6. […] The cell cycle stage of the cells, described in Fig. 4B, was determined by flow cytometry. […]

yeast cells = assay: Yeast growth with CIP3 expressed from T2A ribosome-skipping vector; assay type: cell-based, Saccharomyces cerevisiae; settings: CIP3 followed by GFP in T2A vector, GAL promoter
From the text: The weak effect of CIP3 expressed in cells may relate to several reasons, including low expression levels, low translation efficiency, or cellular instability of short mRNAs and peptides. We tried to increase cellular mRNA stability by using a plasmid containing the T2A ribosome-skipping sequence under GAL promoter control.[29]^,[30]^,[31] Two genes cloned in tandem and separated by a T2A linker were expressed as a single mRNA. The ribosome skips the T2A sequence during translation, resulting in two separate proteins (Figure S1A. Peptide expression from a plasmid containing T2A ribosome-skipping sequence, related to Figure 2). To test the system, we cloned green fluorescent protein (GFP) and mCherry in tandem, separated by the T2A sequence. Cells carrying the plasmids were grown in SC-URA with either noninducing raffinose or inducing galactose. […] Both GFP and mCherry proteins were detected by western blot analysis of extracts from these cells (Figure S1C. Peptide expression from a plasmid containing T2A ribosome-skipping sequence, related to Figure 2). […]

cohesin holocomplex = assay: ATPase assay of cohesin holocomplex (free Pi); assay type: biochemical, S. cerevisiae; settings: 10 nM cohesin, 20 nM loader, dsDNA, 0.25 mM ATP, 20 mM TAT-CIP3 as printed, 30°C, absorbance 650 nm
Experimental: The formation of the Smc3-CIP3 complex likely affects the ATPase activity. To explore this possibility, we expressed and purified S. cerevisiae cohesin holocomplex and the loader from yeast cells[37] (Figure S4. Purification of cohesin holocomplex and loader, related to Figure 3), and we measured the ATPase rate of cohesin in the presence of cohesin, the loader DNA, and ATP, as previously described.[37] Cohesin was preincubated without or with CIP3, and the accumulation of free Pi was measured over 30 min. In the absence of CIP3, Pi accumulation was constant over time, indicating continuous ATP hydrolysis.
Cohesin and the Scc2-Scc4 loader were expressed in S. cerevisiae as described in[37] with the following modifications: Cells were resuspended in buffer A (50 mM Hepes-NaOH pH 7.5, 300 mM NaCl, 2 mM MgCl2, 20% (vol/vol) glycerol, 0.5 mM Tris(2-carboxyethyl)phosphine hydrochloride (TCEP), 0.5 mM Pefabloc (Sigma-Aldrich), and a protease inhibitor cocktail (Sigma-Aldrich) and lysed by seven continuous passes in EmulsiFlexby-C3 (Avastin) at 4°C. The lysate was clarified, and purifications were continuous, as described in.[37]
ATPase assay has been done with the piColorLock kit (Expedeon) according to the manufacturer manual. […] The reaction was incubated at 30°C for 20 minutes and the amount of free was measured for 30 min minutes by absorbance in 650 nm every 5 min […].

CIP3-TAT [3] = target: T1, CIP3-TAT; assay: field-effect biosensing (FEB Agile R100); 500 nM peptide immobilised on a graphene sensor chip; purified Smc3 head domain as analyte in rising concentrations; PBS baseline; without ATP; Kd by Hill fit or from kon and koff at a single concentration; settings: both partners purified
CIP3-TAT [4] = target: T1, CIP3-TAT; assay: field-effect biosensing (FEB Agile R100); 500 nM peptide immobilised on a graphene sensor chip; purified Smc3 head domain as analyte, incubated with ATP (10 mM) before the measurement; settings: both partners purified

Row | Molecule | biological effect, preliminary analysis (cohesin in yeast cells) | growth of cells overexpressing the peptide [1] | growth rate vs control, multiple linear regression coefficient B [1] | other results
1 | MKQNEQLHVEQLSGGQKTV [CIP1, expressed from pME4] | do not have a detectable biological effect | no significant decrease in growth rate | 0.015 | 
2 | FITC-SGYGRKKRRQRRR-GGGLNPYWMETFT [ContP, 26-amino acid control peptide fused to the TAT and a fluorescein isothiocyanate (FITC) fluorophore] |  |  |  | peptide entry into yeast cells [2]: emission from cells incubated with the ContP peptide
3 | MIIGSNGSGKSN [CIP2, expressed from pME2] | do not have a detectable biological effect | no significant decrease in growth rate | −0.290 | 
4 | MKRFKDMEYLSGGEKT [CIP3, expressed from pME3] |  | weak growth delay; also recorded: significant decrease in growth rate | −0.727 | growth inhibition compared to previous (non-T2A) experiment (yeast cells): the inhibition fold was not improved; Pi accumulation (ATPase activity) after 5 min (cohesin holocomplex): Pi accumulation dropped sharply, indicating that ATPase activity was inhibited
5 | B1 |  |  |  | Kd (CIP3-TAT [3]): 53.9 nM and 56 nM; Kd (CIP3-TAT [4]): 544.2 ± 0.06 nM
